Literature values, collected in patent US12156872B2, “Combination therapies for treating cancer” (TESARO, Inc., priority 2017, dated 2024).
Like-named read-outs stand apart in the source and are kept apart here.

Key:
[1] = tested on: MDA-MB-436, CAPAN-1, GRANTA-519, OVCAR3, HT29, DLD-1, patient derived Ewing's sarcoma and TNBC xenograft models; details: xenograft models in mice
PARP = details: hydrogen peroxide stimulated, various cell lines
[2] = tested on: cancer cell lines silenced for BRCA-1 or BRCA-2, or carrying BRCA-1 or BRCA-2 mutations
[3] = tested on: Ewing's sarcoma, ALL, NSCLC, SCLC cell lines and tumor cell lines with homozygous inactivation of the ATM gene
OC = details: single agent
[4] = tested on: non-small-cell lung cancer, melanoma, and renal-cell cancer; details: Phase I clinical trial
TNBC = details: single agent, previously treated TNBC

NC(=O)c1cccc2cn(-c3ccc([C@@H]4CCCNC4)cc3)nc12 [niraparib, (3S)-3-[4-{7-(aminocarbonyl)-2H-indazol-2-yl}phenyl]piperidine]
antitumor activity [1]: strong antitumor activity
cell cycle effect [2]: cell cycle arrest in G2/M followed by apoptosis
anti-proliferative activity ([2]; compared to wild type counterparts): selective anti-proliferative activity
cell cycle effect ([2]; listed as Niraparib): arrest in the G2/M phase of the cell cycle
cytotoxicity [3]: selectively cytotoxic
activity on normal human cells (normal human cells): weak activity

nivolumab: PD-1 antibody (Human IgG4), Bristol-Myers Squibb / ONO
objective response rate (ORR) (OC): 15%
clinical response [4]: complete or partial responses

pembrolizumab: anti-PD-1 monoclonal antibody, immunoglobulin G4/kappa isotype humanized mAb (SEQ ID NO: 1 and 2)
objective response rate (ORR) (TNBC): 4.7%
